Measurements: US10392599B2, “Method for non-freeze low-temperature preservation of mammalian embryo or fertilized egg” (NATIONAL FEDERATION OF AGRICULTURAL COOPERATIVE ASSOCIATIONS, priority 2012, dated 2019)

Legend:
bovine embryos [1] = test: conception test: implantation of high-quality bovine embryos preserved 7 days in the non-frozen state into recipient cattle; format: in vivo; conditions: 25 mM HEPES
Procedure: Embryos collected from donor bovine animals of Japanese Black Cattle and Holstein Cattle after superovulation were evaluated for their qualities according to the regulation by International Embryo Transfer Society (IETS manual. Manual of the international embryo transfer society. In: Stringfellow D A, Seidel S M, editors. Savoy, Ill., USA: IETS 1998). Low-quality embryos were subjected to an in vitro culture test after 7 days of non-freezing preservation, and high-quality embryos were subjected to investigation of the conception rate after implantation to recipient cattle.
Preservation of bovine embryos was carried out as follows (FIG. 1). First, a preservative solution alone was sucked into a straw having a capacity of 0.25 ml, and, after introduction of an air layer, a bovine embryo contained in the preservative solution was sucked. Thereafter, an air layer was introduced, and the preservative solution alone was sucked again. The straw was then sealed. Subsequently, the straw containing the sucked bovine embryo was immersed in water contained in a plastic container (plastic tube) which had been preliminarily cooled to 4 to 5° C. The plastic container was then stored in a refrigerator for 7 days at 4 to 5° C.
After the non-freezing preservation, the bovine embryo was washed 3 times by immersion in PBS(+) containing 5% (v/v) fetal bovine serum (FBS). The washed bovine embryo was cultured under 5% CO2 at 38° C. in CR1aa medium containing 5% (v/v) FBS for 48 hours. Morphological observation was carried out under a stereoscopic microscope, and the embryo was judged to be alive if the progress of cleavage by the culture could be found and the cytoplasmic membrane was not disrupted. Live cells were checked for whether hatching from the zona pellucida could be observed or not. A bovine embryo washed with PBS(+) containing 5% (v/v) FBS was nonsurgically implanted into the deep part of the corpus-luteum-side uterine horn of each recipient cattle on Day 6 to 8 of an estrous cycle (the date of estrus was defined as Day 0). On Days 30 and 60 of the estrous cycle, pregnancy diagnosis was carried out. For a significance test to verify the effect of the embryo preservation solution according to the present invention, a χ^2 test was used.
To medium 199 (Invitrogen) supplemented with antibiotics (penicillin G potassium and streptomycin sulfate), FBS was added to 20 to 50% (v/v), and HEPES was also added to a concentration of 0 to 100 mM. In the conception test, a group in which a special peptide having a protection effect against low temperature (mature Nfel1, SEQ ID NO:2) was added was also provided. In addition, in order to investigate the effects of other Good's buffers other than HEPES, preservation solutions were prepared by adding FBS and a Good's buffer (PIPES or MOPS) to medium 199 such that the concentration of FBS was 50% (v/v) and the concentration of the Good's buffer was 25 mM. These preservation solutions were sterilized by filtration through a filter having a pore size of 0.2 μm, and stored in a refrigerator until use.
Subsequently, the conception ability of high-quality bovine embryos that had been preserved in the non-frozen state for 7 days was investigated. Since the concentration of HEPES generally recommended for use in cell culture is 10 to 25 mM (Luo S et al., Effect of HEPES buffer on the uptake and transport of P-glycoprotein substrates and large neutral amino acids. Mol Pharm 2010; 7:412-420), the concentration of HEPES in the non-freezing preservative solution used in the present test for investigation of the conception ability was set to 25 mM. The special recombinant peptide having a protection effect against low temperature (mature Nfel1 peptide) was added to medium 199 containing 50% (v/v) FBS supplemented with 25 mM HEPES, to see whether the peptide improves the conception ability or not.

bovine embryos [2] = conditions: mature Nfel1 in combination with about 20 to 50% (v/v) serum; cited from earlier work
[3] = medium 199, 50% (v/v) FBS, 7 days non-frozen
[4] = medium 199, 50% (v/v) FBS, 7 days non-frozen, 16 implanted embryos

Which “Conceptus number on Day 30 (%)” value (bovine embryos [1]; [3]) does the source give for “Special recombinant peptide: special peptide having a protection effect against low temperature (mature Nfel1, SEQ ID NO:2), 66 residues, expressed in E. coli” here?
The value was 75.0%.

And the “Conceptus number on Day 60 (%)” value (bovine embryos [1]; [3])?
Its value is 75.0%.

And the “Conceptus number on Day 30” value (bovine embryos [1]; [4])?
Its value is 12.

What about the “Conceptus number on Day 60” value (bovine embryos [1]; [4]) of the same substance?
The value was 12.

What about the conception-promoting effect (bovine embryos [1]; peptide added to medium 199, 50% (v/v) FBS) of the same substance?
Its conception-promoting effect is “No conception-promoting effect was found”.

And the “period of preservation of bovine embryos at non-freezing low temperature” value (bovine embryos [2])?
Its value is “up to 5 days”.
